These results are taken from PubChem BioAssay (NCI).

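All cell lines were grown in 96-well plates and treated with compound for 48 hours. TGI: total growth inhibition.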

Some test systems named below: U251 CNS; NCI-H522 lung; MALME-3M melanoma; KM20L2 colon; DMS 114 small cell lung; NCI-H460 lung; SNB-78 CNS; HT29 colon; XF 498 CNS; DMS 273 small cell lung.
What all share (test): growth of human tumour cells (NCI), 48 h

For `COc1ccc(/C=[N+](\[O-])[C@H](COCc2ccccc2)c2ccccc2)cc1`, the TGI in the assay on U251 CNS, with NCI-H522 lung, with MALME-3M melanoma, in the assay on KM20L2 colon, in the assay with DMS 114 small cell lung and in the assay on NCI-H460 lung was above 100 µM in each case. Besides, the TGI with SNB-78 CNS, in the assay on HT29 colon, in the assay on XF 498 CNS and in the assay on DMS 273 small cell lung was above 100 µM in each case.

On to `CCCc1ccc(N=Cc2cc(OC)c(OC)c(OC)c2)cc1`, for which the TGI in the assay on U251 CNS was above 100 µM; with NCI-H522 lung, above 100 µM; in the assay on MALME-3M melanoma, above 100 µM; with KM20L2 colon it was above 100 µM; with DMS 114 small cell lung, above 60.6 µM; in the assay with NCI-H460 lung, above 100 µM. Besides, the TGI with SNB-78 CNS, in the assay with HT29 colon, with XF 498 CNS and in the assay with DMS 273 small cell lung was above 100 µM each time.

Turning to `Cc1c(C(=O)CC(=O)C(=O)NC2C3CC4CC(C3)CC2C4)[n+](=O)c2ccccc2n1[O-]` (stereo not given), the TGI in the assay on U251 CNS, in the assay on NCI-H522 lung, in the assay on MALME-3M melanoma, with KM20L2 colon, in the assay on DMS 114 small cell lung and with NCI-H460 lung was above 100 µM each time. In addition, the TGI in the assay with SNB-78 CNS, in the assay with HT29 colon, in the assay with XF 498 CNS and with DMS 273 small cell lung was above 100 µM in each case.

For `CC[C@@]1(OC(=O)CCC(=O)O)C(=O)OCc2c1cc1n(c2=O)Cc2cc3ccccc3nc2-1`, the TGI came to 2.18 µM with U251 CNS; 3.72 µM in the assay on NCI-H522 lung; 6.78 µM in the assay with MALME-3M melanoma; 33.8 µM with KM20L2 colon; 1.08 µM in the assay with DMS 114 small cell lung; 0.592 µM in the assay with NCI-H460 lung. For the same compound, the TGI is above 100 µM with SNB-78 CNS, above 33.6 µM in the assay with HT29 colon, 5.38 µM in the assay on XF 498 CNS and 0.676 µM in the assay on DMS 273 small cell lung.

In the case of `O=C(O)c1[nH]c(C(=O)O)c(CC(F)(F)C(F)(F)C(F)(F)F)c1CC(F)(F)C(F)(F)C(F)(F)F`, the TGI in the assay with U251 CNS, in the assay on NCI-H522 lung, with MALME-3M melanoma, in the assay with KM20L2 colon, in the assay with DMS 114 small cell lung and in the assay on NCI-H460 lung was above 100 µM throughout. Also, the TGI in the assay on SNB-78 CNS, in the assay with HT29 colon, with XF 498 CNS and in the assay on DMS 273 small cell lung was above 100 µM each time.

Consider `CC(=O)O/C(C)=C\C(=O)O/N=C(\N)c1ccc(C)cc1`, for which the TGI was 40.5 µM in the assay on U251 CNS; 49.1 µM with NCI-H522 lung; 71.5 µM in the assay with MALME-3M melanoma; above 100 µM in the assay with KM20L2 colon; 45 µM in the assay on DMS 114 small cell lung; above 100 µM in the assay with NCI-H460 lung. The TGI is 70.9 µM with SNB-78 CNS, above 100 µM in the assay on HT29 colon, above 100 µM with XF 498 CNS and above 100 µM in the assay on DMS 273 small cell lung.
